Source: patent publication US5252570A, “Amidino and guanidino derivatives” (B.I. Italia, priority 1988, dated 1993)
Counter-ions that a name gives are not always drawn. Like-named read-outs stand apart in the source and are kept apart here.

Target: T1, 5-HT3 receptors (Rattus norvegicus, UniProt P35563)
T1 construct: from tissue; host or cells: whole anesthetized rat (in vivo)
T1 sequence (P35563 24-483): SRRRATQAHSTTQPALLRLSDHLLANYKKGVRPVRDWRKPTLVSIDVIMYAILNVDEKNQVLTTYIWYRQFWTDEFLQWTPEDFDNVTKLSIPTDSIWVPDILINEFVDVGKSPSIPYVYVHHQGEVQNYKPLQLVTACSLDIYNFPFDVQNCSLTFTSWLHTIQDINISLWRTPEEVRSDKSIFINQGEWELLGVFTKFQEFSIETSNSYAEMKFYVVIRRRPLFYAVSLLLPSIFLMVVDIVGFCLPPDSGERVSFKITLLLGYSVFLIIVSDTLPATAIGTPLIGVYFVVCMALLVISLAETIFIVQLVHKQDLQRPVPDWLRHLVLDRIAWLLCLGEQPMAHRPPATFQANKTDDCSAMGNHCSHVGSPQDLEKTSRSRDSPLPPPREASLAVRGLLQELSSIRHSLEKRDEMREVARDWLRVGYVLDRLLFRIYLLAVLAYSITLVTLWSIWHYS
Assay: Bezold-Jarish reflex in anesthetized rats (serotonin-induced bradycardia and hypotension)
Assay type: in vivo
Conditions: iv, antagonist injected 5 min before serotonin (20 μg/kg i.v.), urethane-anesthetized rats
From the text: As already mentioned hereinbefore the new compounds of formula (I), according to the present invention, have interesting pharmacological properties owing to their ability to antagonize the physiological 5-HT effects at 5-HT3 receptors in warm-blooded animals. Therefore the new compounds are commercially useful in the prevention and in the treatment of disorders wherein 5-HT3 receptors are involved, such as chemotherapy or radiation induced nausea and emesis, migraine, delayed gastric emptying, stress-induced psychological disorders, irritable bowel syndrome, arrhytmia and rhinitis.
Bezold-Jarish Reflex in Anesthetized Rats
Rats (250-275 g) were anesthetized with urethane (1.25 g/kg ip.). The blood pressure and the heart rate were recorded from the left femoral artery by means of a pressure transducer (Statham) connected with a cardiotachometer. The Bezold-Jarish reflex was elicited by rapid intravenous injection of serotonin (20 μg/kg).
Increasing doses of antagonists were injected 5 min. before serotonin to evaluate their effect on the initial bradycardia and associated fall in blood pressure resulting from the reflex vagal stimulation. In other experiments, the right vagus nerve was stimulated with platinum electrodes at 10 V, 10 Hz, 2 msec, (Grass 248 stimulator), to evoke bradycardia. ED50 values were calculated by linear regression analysis of the data expressed as percentage inhibition.

[1] = inhibition of fall in blood pressure, read-out: Hypotension ED50

SMILES: N=CN1[C@@H]2CC[C@H]1C[C@@H](OC(=O)c1cc(Cl)cc(Cl)c1)C2 [Compound 15, endo-(8-Iminomethyl-8-azabicyclo-[3.2.1]oct-3-yl)-3,5-dichlorobenzoate hydrochloride]
- ED50 [1]: 0.5 µg/kg
- ED50 (inhibition of initial bradycardia, read-out: Bradycardia ED50): 0.2 µg/kg

SMILES: N=CN1[C@@H]2CC[C@H]1C[C@@H](OC(=O)c1c[nH]c3ccccc13)C2 [Compound 16, endo-8-(Iminomethyl-8-azabicyclo[3.2.1]oct-3-yl)-1H-indol-3-carboxylate hydrochloride]
- ED50 [1]: 0.3 µg/kg
